Key:
GLP = target: T1, GLP (Homo sapiens, UniProt Q9H9B1); test: Methyl transferase scintillation proximity assay; format: biochemical; details: average of two measurements; for inhibition at 10 µM: read-out: MTases Inhibition (%)
T1 construct: purchased DiscoverX BROMOscan (bromodomains); SGC in-house methyltransferase panel
T1 sequence (Q9H9B1 1-1298): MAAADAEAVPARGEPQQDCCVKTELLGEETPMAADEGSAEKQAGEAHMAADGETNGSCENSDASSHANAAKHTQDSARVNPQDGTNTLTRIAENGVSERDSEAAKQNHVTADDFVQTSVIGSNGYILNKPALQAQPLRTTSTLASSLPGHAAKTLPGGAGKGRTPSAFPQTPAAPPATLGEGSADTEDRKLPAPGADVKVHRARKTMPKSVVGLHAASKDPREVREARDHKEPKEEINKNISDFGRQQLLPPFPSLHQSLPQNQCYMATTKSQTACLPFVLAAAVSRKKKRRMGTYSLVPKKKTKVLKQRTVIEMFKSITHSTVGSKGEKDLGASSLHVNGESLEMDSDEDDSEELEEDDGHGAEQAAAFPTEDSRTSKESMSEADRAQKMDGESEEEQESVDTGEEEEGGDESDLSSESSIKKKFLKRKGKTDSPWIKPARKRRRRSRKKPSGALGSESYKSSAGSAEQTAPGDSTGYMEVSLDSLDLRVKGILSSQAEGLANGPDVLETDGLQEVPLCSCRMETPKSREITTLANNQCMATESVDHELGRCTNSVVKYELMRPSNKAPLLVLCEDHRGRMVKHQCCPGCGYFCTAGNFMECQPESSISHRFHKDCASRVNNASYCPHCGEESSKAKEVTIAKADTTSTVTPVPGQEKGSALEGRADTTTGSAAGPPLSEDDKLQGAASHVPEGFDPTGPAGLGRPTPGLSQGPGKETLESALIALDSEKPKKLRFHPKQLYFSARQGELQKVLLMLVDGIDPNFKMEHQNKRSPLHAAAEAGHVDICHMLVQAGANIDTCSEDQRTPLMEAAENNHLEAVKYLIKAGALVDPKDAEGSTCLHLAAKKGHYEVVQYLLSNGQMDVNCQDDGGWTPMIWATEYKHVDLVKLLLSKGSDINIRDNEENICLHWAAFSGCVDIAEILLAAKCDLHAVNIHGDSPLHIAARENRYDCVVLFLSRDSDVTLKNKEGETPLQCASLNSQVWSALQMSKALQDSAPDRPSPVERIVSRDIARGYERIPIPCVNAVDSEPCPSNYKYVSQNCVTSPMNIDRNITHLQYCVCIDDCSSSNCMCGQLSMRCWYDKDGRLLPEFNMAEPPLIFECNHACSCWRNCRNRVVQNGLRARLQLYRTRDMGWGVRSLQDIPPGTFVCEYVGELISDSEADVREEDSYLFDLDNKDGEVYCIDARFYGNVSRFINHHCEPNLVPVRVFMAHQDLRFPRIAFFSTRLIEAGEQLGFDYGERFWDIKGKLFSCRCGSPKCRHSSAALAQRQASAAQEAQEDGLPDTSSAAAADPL
In short: (§1)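 Scintillation proximity format using ^3H-SAM as methyl donor; substrate biotinylated. Levels of both near apparent Km. Activity expressed relative to compound-free (100%) and enzyme-free (0%) counts.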

PRMT9 = target: T2, PRMT9 (Homo sapiens, UniProt Q6P2P2); test: Methyl transferase scintillation proximity assay; format: biochemical; details: average of two measurements; for inhibition at 10 µM: read-out: MTases Inhibition (%)
T2 construct: purchased DiscoverX BROMOscan (bromodomains); SGC in-house methyltransferase panel
T2 sequence (Q6P2P2 1-845): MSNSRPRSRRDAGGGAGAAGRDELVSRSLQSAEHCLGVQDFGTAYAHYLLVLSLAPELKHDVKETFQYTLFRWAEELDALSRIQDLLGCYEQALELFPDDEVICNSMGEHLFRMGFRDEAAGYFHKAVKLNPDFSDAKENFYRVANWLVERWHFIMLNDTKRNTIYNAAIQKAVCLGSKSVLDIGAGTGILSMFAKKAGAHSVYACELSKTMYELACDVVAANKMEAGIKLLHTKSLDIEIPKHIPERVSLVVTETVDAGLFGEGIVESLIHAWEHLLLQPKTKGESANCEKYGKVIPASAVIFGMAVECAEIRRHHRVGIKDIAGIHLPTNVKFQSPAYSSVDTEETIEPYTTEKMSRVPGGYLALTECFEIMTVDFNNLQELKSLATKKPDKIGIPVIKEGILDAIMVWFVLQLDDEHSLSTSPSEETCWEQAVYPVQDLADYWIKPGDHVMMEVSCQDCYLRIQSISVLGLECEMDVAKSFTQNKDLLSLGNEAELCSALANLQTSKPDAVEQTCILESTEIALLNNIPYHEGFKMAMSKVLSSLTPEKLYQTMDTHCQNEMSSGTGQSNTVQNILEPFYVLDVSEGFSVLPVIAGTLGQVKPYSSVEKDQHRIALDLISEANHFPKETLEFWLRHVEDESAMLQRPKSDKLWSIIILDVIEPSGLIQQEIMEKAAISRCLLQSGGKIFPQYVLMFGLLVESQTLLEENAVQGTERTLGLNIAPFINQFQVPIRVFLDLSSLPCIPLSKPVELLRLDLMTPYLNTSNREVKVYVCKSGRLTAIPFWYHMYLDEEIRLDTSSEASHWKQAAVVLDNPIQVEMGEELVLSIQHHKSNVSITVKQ
In short: as §1

Compound | inhibition at 10 µM (GLP) [%] | inhibition at 10 µM (PRMT9) [%] | MTases Inhibition (%) (GLP; 10µM) | MTases Inhibition (%) (PRMT9; 10µM)
Cc1c(NC(=O)c2cc(C(N)=O)nc3cc(F)ccc23)c(C(F)(F)F)nn1Cc1ccc(C#N)cc1 [BAY-876] | 0 | 12 | – | –
CN(C)CCCOc1ccc(-c2cc(NCCCn3cccn3)nc(S(C)(=O)=O)n2)cc1 [TP-238] | 1 | 7 | – | –
COc1cc(Cl)c(C(=O)N[C@@H](CN[C@H]2CC[C@@H](N)CC2)Cc2ccc(C#N)cc2)cc1-c1ccc(CN[C@H](C)c2ccc(C)cc2)o1 [BAY-850] | 2 | 15 | – | –
Cc1nnc2c3ccccc3c(N[C@@H](C)[C@H](c3ccccc3)N(C)C)nn12 [L-Moses] | 2 | 13 | – | –
Cc1c(NC(=O)c2cc(C(N)=O)nc3cc(F)ccc23)c(C(F)(F)F)nn1Cc1ccc(C(C)(C)C)cc1 [BAY-588] | 2 | 3 | – | –

Results, then the compound that gave them:

inhibition at 10 µM (GLP) [%] | inhibition at 10 µM (PRMT9) [%] | MTases Inhibition (%) (GLP; 10µM) | MTases Inhibition (%) (PRMT9; 10µM) | Compound
2 | 3 | – | – | CO[C@H]1CNC[C@@H](OCC2CCC(F)(F)CC2)[C@@H]1Nc1ncc(-c2cncc(C)c2)c2cc(C)c(=O)[nH]c12 [GSK8814]
– | – | 3 | 12 | COc1ccccc1C(=O)Nc1cc2c(cc1N1CCNC[C@H]1C)n(C)c(=O)n2C [GSK6853]
2 | 8 | – | – | CN1C[C@H](Nc2cnn(C)c(=O)c2Br)C[C@H](c2ccccc2)C1 [GSK4027]

Source: article PMC6478789, “A chemical toolbox for the study of bromodomains and epigenetic signaling” (Nature Communications, 2019)
